Earlier results on one compound are cited in EP4748406A1, “MEDICAL ADHESIVE AGENT AND MEDICAL ADHESIVE SHEET” (Nitto Denko Corporation, priority 2023, dated 2025).

For the compound `C=C(C)C(=O)O` [MAA, methacrylic acid], the “water solubility at 20°C” value is 9.7 g/100 mL.
